{
  "source": "patent US20090011013A1",
  "about": "“Tacrolimus Combination Products” (LIFECYCLE PHARMA A/S, priority 2005, published 2009)",
  "key": {"[1]": {"conditions": "cited from earlier work"}, "[2]": {"conditions": "oral, cited from earlier work"}, "[3]": {"test_system": "Canine Lung Allotransplantation", "conditions": "dogs, cited from earlier work"}, "[4]": {"conditions": "cited from earlier work", "remark": "listed apart in the source"}, "[5]": {"test": "three-way crossover pilot bioavailability study of Prograf and Neoral combinations vs. Prograf", "format": "in vivo, human"}, "[6]": {"conditions": "rats, cited from earlier work"}},
  "note": "Read-outs that look alike come from different tables or passages of the source.",
  "data": [
    {"molecule": "C=CC[C@@H]1/C=C(\\C)C[C@H](C)C[C@H](OC)[C@H]2O[C@@](O)(C(=O)C(=O)N3CCCC[C@H]3C(=O)O[C@H](/C(C)=C/[C@@H]3CC[C@@H](O)[C@H](OC)C3)[C@H](C)[C@@H](O)CC1=O)[C@H](C)C[C@@H]2OC", "note": "[Tacrolimus]", "values": [
      {"measurement": "bioavailability", "setting": "[1]; after oral administration", "result": "≤ 20", "unit": "%"},
      {"measurement": "mean time-to-peak concentration (tmax)", "setting": "[1]; oral, healthy subjects or kidney or liver transplanted patients", "result": "1 to 2", "unit": "h"},
      {"measurement": "time to reach peak", "setting": "[2]; most patients", "result": "≤ 1", "unit": "h"},
      {"measurement": "time to reach peak", "setting": "[2]; some patients", "result": "≥ 4", "unit": "h"},
      {"measurement": "blood concentration of tacrolimus, combination vs alone at same dose", "setting": "[3]; group E vs group C", "result": "not significant higher"},
      {"measurement": "immunosuppressive effect", "setting": "[3]; i.m. 0.03 mg/kg/day (suboptimal dose)", "result": "rejection"},
      {"measurement": "immunosuppressive effect", "setting": "[3]; i.m. 0.1 mg/kg/day (optimal dose)", "result": "adequate immunosuppression"},
      {"measurement": "solubility in chloroform", "setting": "[4]; chloroform", "result": "very soluble"},
      {"measurement": "solubility in ethanol", "setting": "[4]; ethanol", "result": "freely soluble"},
      {"measurement": "solubility in methanol", "setting": "[4]; methanol", "result": "very soluble"},
      {"measurement": "solubility in water", "setting": "[4]; water", "result": "practically insoluble"},
      {"measurement": "increase in tacrolimus bioavailability", "setting": "[5]; tacrolimus and cyclosporine in a ratio of 1:20", "result": "above 100%"},
      {"measurement": "increase of bioavailability of tacrolimus", "setting": "[5]; tacrolimus and cyclosporine in the ratio of 1:2", "result": 30, "unit": "%"},
      {"measurement": "hepatic extraction ratio", "setting": "[6]; calculated", "result": 60, "unit": "%"},
      {"measurement": "intestinal extraction", "setting": "[6]; calculated", "result": 34, "unit": "%"},
      {"measurement": "bioavailability", "setting": "[6]; intestinal administration", "result": "~25", "unit": "%"},
      {"measurement": "bioavailability", "setting": "[6]; intraportal administration (infusion over 1 hour)", "result": "about 40%"}
    ]}
  ]
}
